We go through 5 compounds from article PMC11694444 (RSC Advances, 2025).

Where two headings read alike, the source gives them in different places.

What all share (assay type): biochemical
One assay concerns the target BChE (EC 3.1.1.8) (Homo sapiens, UniProt P06276). Put plainly: In vitro BChE inhibition assay.
The target of another assay is T1, MAO-A (Homo sapiens, UniProt P21397).
T1 sequence (P21397 1-527): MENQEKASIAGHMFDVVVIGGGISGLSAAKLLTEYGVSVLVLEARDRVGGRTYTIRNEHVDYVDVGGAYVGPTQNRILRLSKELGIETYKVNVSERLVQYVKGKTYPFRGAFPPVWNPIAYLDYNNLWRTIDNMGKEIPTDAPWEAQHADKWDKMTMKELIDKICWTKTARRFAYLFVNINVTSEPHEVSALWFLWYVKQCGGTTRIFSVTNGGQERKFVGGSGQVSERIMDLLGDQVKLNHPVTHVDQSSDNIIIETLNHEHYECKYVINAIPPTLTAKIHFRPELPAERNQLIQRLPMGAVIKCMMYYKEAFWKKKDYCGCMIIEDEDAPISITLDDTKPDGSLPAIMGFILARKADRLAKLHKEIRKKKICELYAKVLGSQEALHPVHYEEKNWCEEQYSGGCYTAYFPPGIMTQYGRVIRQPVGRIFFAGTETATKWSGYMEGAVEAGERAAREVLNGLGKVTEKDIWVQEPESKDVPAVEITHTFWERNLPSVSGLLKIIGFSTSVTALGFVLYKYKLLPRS
In words: In vitro MAO-A inhibition assay.

Assay [1] addresses T2, Cyclooxygenase (COX-2) from human recombinant (Homo sapiens, UniProt P35354).
T2 sequence (P35354 18-604): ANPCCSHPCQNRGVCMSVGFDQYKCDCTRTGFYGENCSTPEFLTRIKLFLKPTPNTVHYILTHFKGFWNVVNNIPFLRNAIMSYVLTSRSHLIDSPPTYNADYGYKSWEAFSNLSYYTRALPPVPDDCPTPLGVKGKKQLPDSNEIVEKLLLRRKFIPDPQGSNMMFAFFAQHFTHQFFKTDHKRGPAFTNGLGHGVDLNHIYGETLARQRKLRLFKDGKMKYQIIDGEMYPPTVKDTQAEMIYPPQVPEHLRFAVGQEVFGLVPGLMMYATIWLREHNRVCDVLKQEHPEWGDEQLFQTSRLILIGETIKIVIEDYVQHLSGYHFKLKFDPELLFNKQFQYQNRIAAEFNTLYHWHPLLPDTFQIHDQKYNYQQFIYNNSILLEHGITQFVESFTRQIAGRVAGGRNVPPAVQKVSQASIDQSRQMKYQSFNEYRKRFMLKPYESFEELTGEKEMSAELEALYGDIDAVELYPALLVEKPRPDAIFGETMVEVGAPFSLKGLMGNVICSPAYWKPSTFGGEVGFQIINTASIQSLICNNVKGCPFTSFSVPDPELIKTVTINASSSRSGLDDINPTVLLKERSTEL
Put plainly: biochemical.

Assay [2] deals with AChE (EC Number: 3.1.1.7.) (Homo sapiens, UniProt P22303). Put plainly: In vitro AChE inhibition assay.
Chain of AChE (EC Number: 3.1.1.7.) (P22303 32-614): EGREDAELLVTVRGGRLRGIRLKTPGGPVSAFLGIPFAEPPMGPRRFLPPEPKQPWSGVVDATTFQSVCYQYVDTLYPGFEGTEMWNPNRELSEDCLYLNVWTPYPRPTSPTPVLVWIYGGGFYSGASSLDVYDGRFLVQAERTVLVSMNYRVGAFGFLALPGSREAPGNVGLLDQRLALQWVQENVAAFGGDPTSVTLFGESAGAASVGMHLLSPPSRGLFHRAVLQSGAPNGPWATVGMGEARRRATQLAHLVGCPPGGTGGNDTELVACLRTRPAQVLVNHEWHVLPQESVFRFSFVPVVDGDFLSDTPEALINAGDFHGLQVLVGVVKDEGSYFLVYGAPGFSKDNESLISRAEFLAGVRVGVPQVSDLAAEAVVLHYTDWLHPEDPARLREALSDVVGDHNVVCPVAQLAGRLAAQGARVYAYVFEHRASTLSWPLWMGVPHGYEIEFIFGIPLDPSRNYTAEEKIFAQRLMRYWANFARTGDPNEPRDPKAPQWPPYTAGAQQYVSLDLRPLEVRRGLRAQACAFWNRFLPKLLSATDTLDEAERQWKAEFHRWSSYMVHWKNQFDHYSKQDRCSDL
In the next assay the target is T3, MAO-B (Homo sapiens, UniProt P27338).
T3 sequence (P27338 1-520): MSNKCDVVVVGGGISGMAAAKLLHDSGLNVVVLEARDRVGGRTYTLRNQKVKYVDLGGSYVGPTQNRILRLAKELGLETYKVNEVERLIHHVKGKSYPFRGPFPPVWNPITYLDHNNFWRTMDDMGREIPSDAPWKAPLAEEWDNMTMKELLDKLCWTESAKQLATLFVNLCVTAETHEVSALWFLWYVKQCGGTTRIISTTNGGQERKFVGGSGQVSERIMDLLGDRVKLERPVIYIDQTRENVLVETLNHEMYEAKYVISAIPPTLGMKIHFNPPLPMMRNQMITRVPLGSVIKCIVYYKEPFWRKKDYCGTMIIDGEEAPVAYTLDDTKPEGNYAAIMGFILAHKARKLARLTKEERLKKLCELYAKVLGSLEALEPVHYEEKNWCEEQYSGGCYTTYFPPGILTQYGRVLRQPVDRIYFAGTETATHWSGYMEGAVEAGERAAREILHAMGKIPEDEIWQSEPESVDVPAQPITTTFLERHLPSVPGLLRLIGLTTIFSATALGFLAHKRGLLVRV
Put plainly: In vitro MAO-B inhibition assay.

The next assay deals with 5-lipoxygenase (5-LOX). In words: 5-Lipoxygenase inhibitory assay. The settings on record: read-out: IC50 (μM) ± SEM 5-LOX.
[3] abbreviates: read-out: IC50 (μM) ± SEM BChE, ± SEM.
Where [4] appears, read: read-out: IC50 (μM) ± SEM MAO-A, ± SEM.

Chain of BChE (EC 3.1.1.8) (P06276 29-602, species assumed): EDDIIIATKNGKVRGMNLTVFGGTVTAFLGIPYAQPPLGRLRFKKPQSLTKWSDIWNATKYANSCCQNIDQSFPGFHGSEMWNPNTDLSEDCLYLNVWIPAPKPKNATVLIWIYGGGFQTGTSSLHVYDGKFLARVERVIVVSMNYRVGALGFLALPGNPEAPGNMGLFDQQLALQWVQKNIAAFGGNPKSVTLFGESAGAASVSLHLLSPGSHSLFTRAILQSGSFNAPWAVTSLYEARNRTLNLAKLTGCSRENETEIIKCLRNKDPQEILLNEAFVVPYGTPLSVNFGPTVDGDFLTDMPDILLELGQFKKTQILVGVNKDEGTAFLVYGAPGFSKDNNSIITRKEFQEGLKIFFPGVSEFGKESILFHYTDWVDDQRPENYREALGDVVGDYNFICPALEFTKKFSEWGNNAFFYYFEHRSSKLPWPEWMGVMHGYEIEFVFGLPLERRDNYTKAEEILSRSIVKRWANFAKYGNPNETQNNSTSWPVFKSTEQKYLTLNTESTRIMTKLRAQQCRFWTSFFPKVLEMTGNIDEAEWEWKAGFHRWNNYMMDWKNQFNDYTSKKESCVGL

As usually defined, the IC50 is the concentration that inhibits the measured activity by half. Turning to `Oc1ccccc1-c1nc(-c2ccccc2O)n(-c2ccc(-c3nnc4n3N=C(c3ccc(Cl)cc3)CS4)cc2)n1` [Compound 15, 2,2′-(1-(4-(6-(4-Chlorophenyl)-7H-[1,2,4]triazolo[3,4-b][1,3,4]thiadiazin-3-yl)phenyl)-1H-1,2,4-triazole-3,5-diyl)diphenol], the IC50 on BChE (EC 3.1.1.8) came out at 3.96 ± 0.22 µM; at MAO-A it was 3.58 ± 0.56 µM; in assay [1] it was 75.3 ± 3.56 µM. In addition, the “activity against COX-2, in words” value in assay [1] is listed as “good to moderate activity”.
For the compound “2,2′-(1-(4-(6-(2,4-Dichlorophenyl)-1,8a-dihydro-7H-[1,2,4]triazolo[3,4-b][1,3,4]thiadiazin-3-yl)phenyl)-1H-1,2,4-triazole-3,5-diyl)diphenol [Compound 25]”, the values for the IC50 at BChE (EC 3.1.1.8) (setting [3]) and at MAO-A (setting [4]) were 1.09 ± 0.11 µM and 0.81 ± 0.02 µM, respectively.
For the compound “3-(3-(4-(3,5-Bis(2-hydroxyphenyl)-1H-1,2,4-triazol-1-yl)phenyl)-1,8a-dihydro-7H-[1,2,4]triazolo[3,4-b][1,3,4]thiadiazin-6-yl)-7-bromo-3,8a-dihydro-2H-chromen-2-one [Compound 23]”, the “activity against BChE, in words” value at BChE (EC 3.1.1.8) is recorded as “excellent to moderate activity”. For the same compound, the IC50 at BChE (EC 3.1.1.8) (setting [3]) came to 14 ± 1.11 µM; on MAO-A (setting [4]), 1.32 ± 0.11 µM.
With “3-(3-(4-(3,5-Bis(2-hydroxyphenyl)-1H-1,2,4-triazol-1-yl)phenyl)-1,8a-dihydro-7H-[1,2,4]triazolo[3,4-b][1,3,4]thiadiazin-6-yl)-3,10a-dihydro-2H-benzo[g]chromen-2-one [Compound 22]”, the values for the IC50 at BChE (EC 3.1.1.8) (setting [3]) and on MAO-A (setting [4]) were 10.8 ± 0.97 µM and 0.61 ± 0.07 µM, respectively.
Take `O=C(O)c1ccc(-n2nc(-c3ccccc3O)nc2-c2ccccc2O)cc1` [Compound 9, deferasirox, reference compound]: the IC50 in assay [2] worked out at 0.43 ± 0.05 µM; at BChE (EC 3.1.1.8) it was 0.11 ± 0.005 µM; against MAO-A, 10 ± 1.78 µM; at MAO-B it was 0.18 ± 0.01 µM; in assay [1] it was 4.93 ± 0.38 µM; at 5-lipoxygenase (5-LOX) it was 1.28 ± 0.13 µM. Moreover, the “inhibition of AChE, in words” value in assay [2] is listed as “significant inhibition”. In addition, the “activity against BChE, in words” value at BChE (EC 3.1.1.8) is listed as “excellent to moderate activity”. In assay [1], the “activity against COX-2, in words” value is reported as “good to moderate activity”.
